Patent US8557959B2, “Allele and isotope-specific intervention on MHC class II molecules associated with autoimmune diseases by means of peptides” (Merck Serono S.A., priority 2007, dated 2013)
Where two headings read alike, the source gives them in different places.

Key:
HLA-DR2b molecules = molecular target: T1, HLA-DR2b molecules (Homo sapiens, UniProt P01903+P01911); assay: competitive ELISA (dissociation-enhanced lanthanide fluoroimmunoassay) with biotinylated CLIP 97-120 as tracer on purified DR2b molecules; type: binding
T1 construct: made in house; host or cells: L cells co-transfected with HLA-DRA and HLA-DRB1*1501
Text: DR2b molecules were purified from L cells that had been co-transfected with HLA-DRA and HLA-DRB1*1501, by affinity chromatography using the HLA-DR-specific L243 antibody, as described in Weissert et al. (2001), MHC class II-regulated central nervous system autoaggression and T cell responses in peripheral lymphoid tissues are dissociated in myelin oligodendrocyte glycoprotein-induced experimental autoimmune encephalomyelitits, J. Immunol. 166, 7588-7599. The above publication is incorporated into the present application by reference. The binding assays were performed with a competitive ELISA based on a dissociation-enhanced lanthanide fluoroimmunoassay (Wallac, Turku, Finland). For the competitive ELISA, a 50 nM solution of DR2b molecules was incubated for 48 hours at 37° C. with 50 nM biotinylated CLIP 97-120 in the presence of 250 nM acetylated nonapeptide amide sublibrary or with various concentrations of competitor peptides ranging from 1 nM to 100 μM. The IC50 of a peptide was defined as the concentration of peptide that was required for a 50% inhibition of the binding of the tracer peptide. […]

[1] = test system: 08073 T cell hybridoma co-incubated with HLA-DR2b-transfected L466 cells; assay: blocking of MBP 85-99 induced IL-2 secretion by high-affinity ligands for DR2b; type: cell-based, mouse; settings: 1 μg/ml MBP 85-99, 10 μg/ml peptide, 24 hours; FIG. 1
Description: L466 cells and 08073 cells, which were transfected with HLA-DR2b, were co-incubated in the presence of 1 μg/ml MBP 85-99 and 10 μg/ml of various HLA-DR2b peptides; “kein Komp.”=no peptide according to the invention in the batch. After 24 hours the supernatant was collected and the amount of IL-2 present in the supernatant was measured in a mouse-specific IL-2-ELISA.
L466 cells and 08073 cells that were transfected with HLA-DR2b were co-incubated in the presence of 1 μg/ml MBP 85-99 and 10 μg/ml of the HuPb28-variants. After 24 hours the supernatant was collected and the amount of IL-2 present in the supernatant was measured using a mouse-specific IL-2-ELISA.
A T cell hybridoma (08073), which expresses the T cell receptor that is specific for MBP 85-99, which is presented by HLA-DR2b, was provided. After stimulation with MBP 85-99, presented by HLA-DR2b-transfected L466 cells, the 08073 cells secreted significant amounts of IL-2. 5×10^4 08073 cells were co-incubated for 24 hours with 5×10^4 HLA-DR2b-transfected L466 cells in RPMI medium (Invitrogen, Pailey, United Kingdom)/2% FCS (PAA, Linz, Austria)/100 U/ml penicillin, 100 μg/ml streptomycin, 2 mM glutamine (all from Invitrogen) in the presence of 1 μg/ml […] with or without high-affinity peptides (10 μg/ml). The amounts of IL-2 that were secreted in the supernatant were detected using a mouse-IL-2-specific ELISA (BD Biosciences Pharmingen, San Diego, Calif., United States of America).

HLA-DR2b-transgenic mice = assay: MOG 35-55-induced EAE, co-immunization experiment; type: in vivo, mouse
Description: DR2b mice were immunized with the MOG 35-55 peptide in CFA (n=8) or co-immunized with MOG 35-55 and the HuPb11 peptide (SEQ ID No. 17) (n=8) or MOG 35-55 and HuPb28 peptide (SEQ ID No. 9) (n=9). Pertussis toxin (PTX) was administered i.p. on days 0 and 2. The mice were measured daily for EAE and weighed.
The following classifications were used: 0, no disease; 1, weakness or paralysis of the tail; 2, weakness of the hind legs; 3, paralysis of the hind legs; 4, paralysis of the front and hind legs; 5, moribund or death caused by disease.

[2] = acetylated nonapeptide amides, 48 hours at 37° C., 50 nM DR2b, 50 nM biotinylated CLIP 97-120, read-out: IC50 for binding to HLA-DR2b molecules

Substance | IC50 (HLA-DR2b molecules; [2]) | IL-2 secretion after stimulation of 08073 cells with MBP 85-99 [1] | other results
Ac-FILIYSNLF-NH2 [HuPb29, FILIYSNLF] | 2 nM | – | –
Ac-LILWYSSWP-NH2 [HuPb26, LILWYSSWP] | 1 nM | – | –
Ac-WGLPEHLER-NH2 [HuPb11, WGLPEHLER] | > 100000 nM | – | –
Ac-LILYYYYYL-NH2 [HuPb23, LILYYYYYL] | – | – | affinity for HLA-DR2b in words (HLA-DR2b molecules): moderate affinity
Ac-MIYWYSNWL-NH2 [HuPb30, MIYWYSNWL] | < 1 nM | only a slight reduction in IL-2 secretion | –
Ac-MIYWYSSWD-NH2 [HuPb33, MIYWYSSWD] | 1 nM | – | –
Ac-MIDWYSSWP-NH2 [HuPb34, MIDWYSSWP] | 1 nM | – | –
Ac-DIYWYSSWP-NH2 [HuPb32, DIYWYSSWP] | < 1 nM | significantly reduce IL-2 secretion | –
Ac-LLYWYSSWP-NH2 [HuPb27, LLYWYSSWP] | < 1 nM | only a slight reduction in IL-2 secretion | –
Ac-LIYWYSSWL-NH2 [HuPb22, LIYWYSSWL] | 2 nM | – | –
Ac-LILWYSSWL-NH2 [HuPb24, LILWYSSWL] | 2 nM | – | –
Ac-KGESGFRDR-NH2 [HuPb17, KGESGFRDR] | – | did not show any effect | IC50 (HLA-DR2b molecules): > 100000 nM
Ac-PYEAQELHE-NH2 [HuPb14, PYEAQELHE] | > 100000 nM | – | –
Ac-MIYWYNSWL-NH2 [HuPb31, MIYWYNSWL] | < 1 nM | significantly reduce IL-2 secretion | –
Ac-GPPERLEFR-NH2 [HuPb19, GPPERLEFR] | > 100000 nM | did not show any effect | –
Ac-MLIYYSSYL-NH2 [HuPb28, MLIYYSSYL] | < 1 nM | significantly reduce IL-2 secretion | clinical EAE symptoms (HLA-DR2b-transgenic mice; co-administration of 200 μg peptide with 300 μg MOG 35-55 in CFA at immunization): reduced the clinical EAE symptoms; EAE sum value (HLA-DR2b-transgenic mice; co-immunized with MOG 35-55 and peptide, n=9, p<0.05, FIG. 3): reduction in the sum value
Ac-MIYWYSSWI-NH2 [HuPb21, MIYWYSSWI] | 1 nM | – | –
Ac-MIYWYSSWL-NH2 [HuPb20, MIYWYSSWL] | 1 nM | – | –
